Non-standard residues stand in square brackets, D forms with d. Residues, ends and D or L forms follow the SMILES beside them. *: point of attachment. Hexanoyl = CCCCCC(=O)*; Ahx = NCCCCCC(=O)O
Columns and labels:
Format in all cases: cell-based, human
[1] = tested on: hESC line H1; test: Phase I definitive endoderm differentiation, FOXA2/SOX17 immunofluorescence and cell counting; conditions: 24 hour treatment, Phase I endpoint 48 hours, CHIR99021 3 μM, BIO 1 μM, Wnt3a 50 ng/ml
Source text: (§1) The scale bars represent 100 μm.
as §1

[2] = tested on: H1 smHLCs; test: Uptake of indocyanine green; conditions: 1 mg/ml, 1 hour; phase microscopy
Method: In order to assess glycogen storage, differentiated cells were fixed and treated with a periodic acid-Schiff staining kit (Sigma-Aldrich) in accordance with manufacturer's instructions and imaged using a Zeiss phase contrast microscope and ZEN software. The scale bars represent 100 μm. The cellular uptake of indocyanine green was assessed. Briefly, ICG (Sigma-Aldrich) was reconstituted in water and used at a final concentration of 1 mg/ml. Cells were incubated in media supplemented with ICG for 1 hour, the cells were then washed with PBS and imaged using a Zeiss phase contrast microscope and ZEN software.

[3] = tested on: hESC line 207 and hiPSC Detroit RA, RB, RC derived definitive endoderm; test: Phase II hepatic specification of other pluripotent lines; conditions: all lines tested; Phase II conditions, 5 days
Method: Phase I of differentiation consists of a 24 hour treatment with RPMI-B27±insulin (RPMI 1640 GlutaMAX+B27 supplement, both from Life Technologies) plus 3-4 μM CHIR99021 (Stemgent), followed by a 24 hour treatment with RPMI-B27 alone. Phase II consists of 5 days of treatment with Knockout DMEM containing 20% Knockout Serum Replacement, 2 mM GlutaMAX, 100 μM 2-mercaptoethanol, 1×MEM non-essential amino acids (Life Technologies) and 1% DMSO (Sigma-Aldrich). […]
Cells were washed with PBS before being fixed with a 10 minute treatment of ice cold methanol. […] Cells were imaged using a Zeiss Observer Fluorescence Microscope and Axiovision imaging software. […]
(§2) Immuno-stained cells were quantified for expression of stage specific markers by manual counting. For Phase I, FOXA2 and SOX17 were counted separately. For Phase II, cells were scored positively if the nucleus was stained for HNF4A and the cytoplasm was stained for AFP. For Phase III, cells were scored positively if the nucleus was HNF4A positive and the cytoplasm was ALB positive. Phase III cells were also quantified for AFP and A1AT staining and were counted as positive if the cytoplasm was stained. […] A minimum of 10 fields of view were quantified, with a minimum of 250 cells counted per field of view. Percentages are presented as the average of all field quantifications, plus or minus the standard deviation across all fields.

[4] = tested on: CYP1A2; test: Cytochrome P450 induction, P450-Glo CYP1A2; conditions: 100 μM, 72 hours
Method: Induction of cytochrome P450 activity was assessed in both small molecule and growth factor derived HLCs. CYP1A2 activity was detected using the P450-Glo CYP1A2 Induction/Inhibition Assay kit (Promega, Cat. no. V8422). […] Assays were performed according to the manufacturer's instructions for non-lytic P450-Glo assays using cultured cells in monolayers. […] Briefly, cells were cultured to day 20 of the differentiation protocol and Rifampicin or Omeprazole was added to L-15 culture medium, which was formulated as described above, but without dexamethasone or hydrocortisone. […] Briefly, for CYP1 A2 the substrate Luciferin-1A2 was diluted to 6 μM in PBS (calcium/magnesium free) containing 3 mM freshly prepared salicylamide (Sigma). The Luciferin substrate was added to each well (1 ml per well of a 6 well plate), and incubated for 60 minutes followed by detection. […] Basal activity was assessed as above with the omission of inducers. In addition, no cell media controls were included. Finally as a negative control, the pluripotent hESC line H1 was assayed for CYP activity as described above. All data was normalised to total protein content in each well. Data is presented as the mean values of 6 independent experiments; error bars represent standard deviation.

[5] = tested on: hESC line H1; test: Phase I gene expression by TaqMan RT-qPCR
Method: Phase I of differentiation consists of a 24 hour treatment with RPMI-B27±insulin (RPMI 1640 GlutaMAX+B27 supplement, both from Life Technologies) plus 3-4 μM CHIR99021 (Stemgent), followed by a 24 hour treatment with RPMI-B27 alone. Phase II consists of 5 days of treatment with Knockout DMEM containing 20% Knockout Serum Replacement, 2 mM GlutaMAX, 100 μM 2-mercaptoethanol, 1×MEM non-essential amino acids (Life Technologies) and 1% DMSO (Sigma-Aldrich). Phase III consists of 10 days of treatment with Leibovitz L-15 media containing 8.3% tryptose phosphate broth, 10 μM hydrocortisone 21-hemisuccinate, 50 μg/ml sodium-L-ascorbate, 100 nM dexamethasone (all from Sigma-Aldrich), 0.58% insulin-transferrin-selenium (ITS), 2 mM GlutaMAX (all from Life Technologies), 8.3% foetal bovine serum (Lonza), and 100 nM Dihexa (kind gift from Prof. Joseph Harding, Washington State University). During Phases II and III cells are fed every 48 hours. […]
RNA was isolated from cells using TRIzol according to manufacturer's instructions and quantified using a spectrophotometer (NanoDrop). cDNA was prepared using the High Capacity Reverse Transcription kit and a thermal cycler (both from Life Technologies). […] Expression levels were quantified relative to ACTB and normalised to undifferentiated pluripotent control samples or definitive endoderm cells as specified. […]

[6] = tested on: hESC lines 207 and 360, hiPSC lines Detroit; test: Phase I definitive endoderm differentiation of other pluripotent lines
Method: Cells were seeded onto Matrigel coated 12 well plates in E8 medium at a 1:3-1:4 split ratio, and allowed to adhere for 24 hours at 37° C./5% CO2. It should be noted the optimal cell density for each line needs to be established. The cells were washed with phosphate buffered saline (PBS) before being treated with differentiation media. The differentiation protocol utilises similar base media to a well-established differentiation protocol (Hay et al., Proc Natl Acad Sci USA 105, 12301-12306 2008), with replacement of all growth factors with small molecules, and minor adjustments in timing. The protocol incorporates several stages (FIG. 1) utilising different small molecules.
(§3) Phase I of differentiation consists of a 24 hour treatment with RPMI-B27±insulin (RPMI 1640 GlutaMAX+B27 supplement, both from Life Technologies) plus 3-4 μM CHIR99021 (Stemgent), followed by a 24 hour treatment with RPMI-B27 alone. Phase II consists of 5 days of treatment with Knockout DMEM containing 20% Knockout Serum Replacement, 2 mM GlutaMAX, 100 μM 2-mercaptoethanol, 1×MEM non-essential amino acids (Life Technologies) and 1% DMSO (Sigma-Aldrich). Phase III consists of 10 days of treatment with Leibovitz L-15 media containing 8.3% tryptose phosphate broth, 10 μM hydrocortisone 21-hemisuccinate, 50 μg/ml sodium-L-ascorbate, 100 nM dexamethasone (all from Sigma-Aldrich), 0.58% insulin-transferrin-selenium (ITS), 2 mM GlutaMAX (all from Life Technologies), 8.3% foetal bovine serum (Lonza), and 100 nM Dihexa (kind gift from Prof. Joseph Harding, Washington State University). During Phases II and III cells are fed every 48 hours. Cells were photographed during differentiation using a Zeiss phase contrast microscope and ZEN software. The scale bars represent 100 μm.
Cells were washed with PBS before being fixed with a 10 minute treatment of ice cold methanol. Fixed cells were washed in 0.1% PBS-T: PBS containing 0.1% Tween 20 (Sigma-Aldrich). […] Cells were imaged using a Zeiss Observer Fluorescence Microscope and Axiovision imaging software. […]
as §2

[7] = tested on: hESC line H1 and hiPSC line Detroit; test: Definitive endoderm differentiation in 3D alginate scaffold, TaqMan; conditions: cells encapsulated in alginate scaffold; Phase I conditions RPMI-B27+Chir
Method: Differentiation of the hESC line H1 and the hiPSC line Detroit was performed in a 3D environment by encapsulating the cells in an alginate scaffold. The cells were cultured using the same conditions as in 2D with the exception that the spheres were cultured for 6 days in human ES media, then transferred to Phase I conditions (RPMI-B27+Chir). All pluripotency marks were maintained as assessed by TaqMan, to the point prior to transition to Phase I. The ability of hPSCs to be directed to definitive endoderm (DE) in 3D was assessed via the DE marks SOX17 and FOXA2. […] Further differentiation through phases II and III is performed as described above.

[8] = tested on: hepatic progenitors; test: Phase III hepatocyte maturation, optimisation of concentrations; conditions: established in HepatoZYME medium; morphology and function
Method: as §3, with “Phase III consists of 10 days of treatment with Leibovitz L-15 media containing 8.3% tryptose” left out

[9] = all lines (207, Detroit RA, RB, RC), 4 μM in RPMI-B27 minus insulin, 48 hours

Molecule: O=C1Nc2cc(Br)ccc2/C1=C1/Nc2ccccc2/C1=N\O [BIO, (2′Z,3′E)-6-Bromoindirubin-3′-oxime]
- Expression of DE proteins FOXA2 and SOX17 by immunofluorescence [1]: produce FOXA2/SOX17 positive cells

Molecule: CC1(C)C(/C=C/C=C/C=C/C=C2\N(CCCCS(=O)(=O)O)c3ccc4ccccc4c3C2(C)C)=[N+](CCCCS(=O)(=O)[O-])c2ccc3ccccc3c21 [indocyanine green]
- Cellular uptake in smHLCs [2]: ICG positive cells were clearly visible

Molecule: C[S+](C)[O-] [DMSO, Dimethylsulfoxide]
- Efficiency based on AFP/HNF4A co-expression [3]: 86%-89%

Molecule: COc1ccc2[nH]c([S+]([O-])Cc3ncc(C)c(OC)c3C)nc2c1 (stereo not drawn) [Omeprazole]
- Induction of CYP1A2 activity in smHLCs [4]: significant induction

Molecule: Cc1c[nH]c(-c2cnc(NCCNc3ccc(C#N)cn3)nc2-c2ccc(Cl)cc2Cl)n1 [CHIR99021]
- Expression of DE proteins FOXA2 and SOX17 by immunofluorescence [1]: equivalent co-expression
- Time to rapid upregulation of NODAL after exposure ([5]; 3 μM): ≤ 4 h
- SOX7 levels (primitive endoderm marker) during Phase I ([5]; 3 μM 24 hour, then 24 hours RPMI-B27): No upregulation
- Phase I differentiation under H1 conditions ([6]; 3 μM, 24 hour treatment, then 24 hours RPMI-B27): very inefficient
- FOXA2 positive cells at Phase I endpoint [6, 9]: 81%-84%
- SOX17 positive cells at Phase I endpoint [6, 9]: 79%-82%
- Optimal concentration for Phase I differentiation ([6]; titration 1-10 μM in RPMI-B27±insulin, optimum in RPMI-B27 minus insulin): 4 µM
- Induction of SOX17 and FOXA2 in 3D over 2D differentiation [7]: an order of magnitude induction

Molecule: Wnt3a
- Expression of DE proteins FOXA2 and SOX17 by immunofluorescence [1]: sufficient to produce populations of cells that expressed the DE markers FOXA2 and SOX17

Molecule: C[C@@H]1C[C@H]2[C@@H]3CCC4=CC(=O)C=C[C@]4(C)[C@@]3(F)[C@@H](O)C[C@]2(C)[C@@]1(O)C(=O)CO [DEX, dexamethasone]
- Optimal concentration for hepatic maturation [8]: 100 nM

Molecule: CCCCCC(=O)N[C@@H](Cc1ccc(O)cc1)C(=O)N[C@H](C(=O)NCCCCCC(N)=O)[C@@H](C)CC [Dihexa, N-hexanoic-Tyr, Ile-(6) aminohexanoic amide] (Hexanoyl-Tyr-Ile-[Ahx]-NH2)
- Optimal concentration for hepatic maturation [8]: 100 nM

Reference: patent US20170191031A1, “SYSTEMS AND METHODS FOR STEM CELL DIFFERENTIATION” (University of Oslo, priority 2014, published 2017)
